Experimental data taken from publication PMC10151334, “Anti-proliferative potential and oxidative reactivity of thermo-oxidative degradation products of stigmasterol and stigmasteryl esters for human intestinal cells” (Scientific Reports, 2023).

Assays:
[1] = tested on: CCD 841 CoN cells; experiment: Cell cycle analysis by flow cytometry (propidium iodide); type: cell-based, human; details: 40 μg/mL, 24 h
Description: CCD 841 CoN cells were grown in 6-well plates at an initial cell density of 2 × 10^4 cells/cm^2 for 24 h under standard culture conditions. The cells were treated for 24 h with the analyzed compounds at a concentration of 40 μg/mL; the high dose was applied because of the relatively low cytotoxic potential of ST-OA and ST-LA as determined in cytotoxicity studies. In addition, the cells were exposed to 0.05 μM camptothecin (Sigma-Aldrich) as a positive reference compound known to modulate cell cycle progression.
After treatment, the cells were harvested by trypsinization, washed in PBS, and fixed in 70% ethanol. Then, the cells were stained with 50 μg/mL propidium iodide in the presence of 100 μg/mL RNase (Sigma-Aldrich). The sample preparation method and staining protocol were described previously. The cycle phase distribution was analyzed with an Amnis™ FlowSight™ flow cytometer (Luminex Corporation, TX, USA).

[2] = tested on: caspase 3/7 activity in CCD 841 CoN cells; experiment: Caspase 3/7 activity assay (APO-One Homogeneous); type: cell-based, human; details: 40 μg/mL, 24 h
Description: CCD 841 CoN cells were grown in black 96-well plates at an initial cell density of 2 × 10^4 cells/cm^2 for 24 h under standard culture conditions. The cell cultures were treated for 24 h with ST, ST-OA, and ST-LA at a 40 μg/mL dose. After treatment, caspase-3/7 activity was determined using the APO-One Homogeneous Caspase-3/7 Assay (Promega Corporation, Wisconsin, USA), which is based on the proteolytic cleavage of C-terminal side of aspartate residue in the DEVD peptide substrate by caspase 3/7 into fluorescent rhodamine 110 (R110). Analysis of caspase 3/7 activity was carried out following the manufacturer's instructions. Briefly, the cells after the treatment were incubated at room temperature with Apo-ONE® Caspase-3/7 Reagent—bifunctional cell lysis/caspase activity buffer combined with the pro-fluorescent caspase-3/7 substrate Z-DEVD-R110. After 4-h incubation, fluorescence was measured at an excitation wavelength of 485 nm and an emission wavelength of 530 nm using a Tecan M200 Infinite microplate reader. Data obtained were normalized to cellular protein content, quantified by BCA assay (Pierce® BCA Protein Assay Kit, Thermo Scientific Inc., USA) according to the manufacturer's protocol.

[3] = tested on: intracellular ROS in CCD 841 CoN cells; experiment: Intracellular ROS measurement (DCFH-DA, flow cytometry); type: cell-based, human; details: up to 40 μg/mL, 24 h
Description: CCD 841 CoN cells were grown in 6-well plates at an initial cell density of 2 × 10^4 cells/cm^2 for 24 h under standard culture conditions. The cell cultures were treated for 24 h with the analyzed compounds at a 40 μg/mL concentration. After treatment, the cells were harvested by trypsinization, washed with Hank's Balanced Salt Solution, and incubated with 10 μM 2′,7′-Dichlorodihydrofluorescein diacetate (DCFH-DA) (Life Technologies, Carlsbad, CA, USA) at 37 °C for 30 min. Intracellular DCF fluorescence (λex/em = 488/530 nm) was examined by flow cytometry (Amnis™ FlowSight™ flow cytometer).

[4] = tested on: CCD 841 CoN cells; experiment: DNA damage detection, comet assay (SCGE); type: cell-based, human; details: 40 μg/mL, 48 h
Description: The cells were grown at 6-well plates at the established density and standard culture conditions and exposed to the non-heated and heated ST, ST-OA, and ST-LA for 48 h. The non-treated cells and cells treated with H2O2 (100 μM, 30 min) to induce oxidative DNA damage constituted the negative and positive controls, respectively. After treatment, cells were analyzed for DNA damage using a single cell gel electrophoresis (SCGE) called comet assay, described in detail previously. Briefly, harvested cells suspended in low melting point agarose were put onto microscope slides pre-coated with normal melting point agarose and subjected sequentially to lysis, alkaline electrophoresis (pH > 13), and neutralization ([…]). The cells were stained with SYBRGold (Molecular Probes), viewed under a fluorescence microscope (Axiovert 200, Zeiss, Carl Zeiss, Gottingen, Germany), and analyzed using CometScore™ software (TriTek Corp., Sumerduck, VA, USA). At least 100 cells were analyzed on a microscope slide; 300 cells were considered for DNA damage detection in one sample. Data were expressed as the mean percentage of DNA content in the comet tail. […] Based on the comets' categorization, the total comet score (TCS) was calculated according to the formula: TCS = 0(n) + 1(n) + 2(n) + 3(n) + 4(n), where “n” is the number of cells in each comet class (0–4)[45].

[5] = tested on: S. typhimurium TA100; details: 40 μg/mL, without metabolic activation
Description: (§1) Potential mutagenicity or pro-mutagenicity of non-heated and heated ST, ST-LA, and ST-OA was determined using the bacterial reverse mutation assay (Ames test) with Salmonella enterica subsp. enterica ser. typhimurium tester strains TA98, TA100, and TA102, which were obtained from the Polish Collection of Microorganisms of the Institute of Immunology and Experimental Therapy of the Polish Academy of Sciences in Wroclaw.
(§2) Mutagenicity experiments were performed in the liquid pre-incubation assay, without and with metabolic activation by supplying Aroclor 1254-induced rat liver microsomal fraction (S9, Sigma-Aldrich) with NADP and cofactors for NADPH-supported oxidation, according to the procedure described by Mortelmans and Zeiger[39]. Briefly, reaction mixtures, consisting of 12-h bacterial culture, non-heated and heated compound (ST, ST-LA, ST-OA) at a concentration of 40 μg, 0.2 M phosphate buffer (pH 7.4), and alternatively S9 activating mixture, were pre-incubated at 37 °C for 20 min. […] The mutagen, 2-aminoanthracene (5 μg) (Sigma-Aldrich), was a positive control in pro-mutagenicity experiments. After pre-incubation, the reaction mixtures were added to the top agar supplemented with traces of histidine and biotin and poured onto the plates covered with minimum glucose agar. The cultures were incubated for 48 h at 37 °C, and the number of revertants (His+) colonies was counted manually.
(§3) Compounds with MI ≥ 2 can be recognized as potentially mutagenic.

[6] = tested on: S. typhimurium TA98; experiment: Bacterial reverse mutation assay (Ames test), strain TA98; details: 40 μg/mL, with microsomal fraction (+ S9)
Description: as §1, §2, §3

[7] = Thermo-oxidative treatment at 180 °C for 8 h, degradation of the compound; type: physicochemical; details: heated at 180 °C for 8 h under oxygen atmosphere
Description: ST, ST-OA, and ST-LA (50 mg each) were placed separately in glass vials and heated at 180 °C for 8 h under an oxygen atmosphere. After thermo-oxidative treatment, the tested compounds were stored at − 20 °C until chemical and biological analyses. The non-heated and heated ST and its esters were analyzed to detect degradation products and oxyderivatives. Analytical methods were described in the article published previously.

CC[C@H](/C=C/[C@@H](C)[C@H]1CC[C@H]2[C@@H]3CC=C4C[C@@H](O)CC[C@]4(C)[C@H]3CC[C@]12C)C(C)C [ST, Stigmasterol]
cell accumulation in G2/M phases [1]: significant cell accumulation in the G2/M phases | caspase 3/7 activity [2]: Boosted caspase 3/7 activity | intracellular ROS production / oxidative reactivity [3]: did not induce enhanced intracellular ROS production | comets category 2 (medium DNA damage, 25 to 45% DNA in tail), share of cell population [4]: 3.5% | total comet score (TCS), comet class distribution vs control [4]: no significant differences | Mutagenic index TA100 [5]: 1.9 | increase in number of revertant colonies TA98 [6]: 1.6 fold | Sterol moiety depletion (%) [7]: 80.4 ± 13.5%
